Among the test systems are A498 renal; HT29 colon; DU-145 prostate; OVCAR-4 ovarian; OVCAR-3 ovarian; CAKI-1 renal; K-562 leukemia; SN12C renal; A549 NSCLC; HL-60(TB) leukemia.
Holding throughout (test): growth of human tumour cells (NCI), 48 h

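A five-concentration, 48-hour dose response in 96-well plates underlies each endpoint, interpolated linearly between surrounding concentrations. GI50: concentration for 50% inhibition of growth. TGI denotes the concentration required for complete inhibition of growth.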

As for `COc1cc(-c2cn(-c3ccc(Cl)cc3)c(=O)[nH]2)cc(OC)c1OC`, the GI50 in the test on A498 renal, in the test on HT29 colon, with DU-145 prostate, in the test on OVCAR-4 ovarian, in the test on OVCAR-3 ovarian and in the test on CAKI-1 renal was over 100 µM in each case. Also, the GI50 is 52.1 µM in the test with K-562 leukemia, over 100 µM in the test on SN12C renal and over 100 µM in the test on A549 NSCLC. Further, the TGI with A498 renal, with HT29 colon, in the test with DU-145 prostate, in the test on OVCAR-4 ovarian, in the test on OVCAR-3 ovarian and in the test on CAKI-1 renal was over 100 µM throughout. The TGI with K-562 leukemia, with SN12C renal and in the test with A549 NSCLC was over 100 µM throughout.

For `O=C(CNC(=O)c1cccc2ccccc12)Nc1ccccc1Oc1ccccc1`, the GI50 was 0.256 µM in the test with A498 renal; 0.29 µM with HT29 colon; 0.325 µM in the test on DU-145 prostate; 4.54 µM in the test on OVCAR-4 ovarian; 0.19 µM in the test with OVCAR-3 ovarian; 0.353 µM with CAKI-1 renal. Also, the GI50 with K-562 leukemia is 0.0704 µM; with SN12C renal it was 0.583 µM; in the test on A549 NSCLC, 0.459 µM. For the same compound, the TGI in the test on A498 renal was over 10 µM; in the test with HT29 colon it was 1.07 µM; in the test on DU-145 prostate it was over 10 µM; with OVCAR-4 ovarian it was over 10 µM; in the test on OVCAR-3 ovarian it was 0.638 µM; in the test on CAKI-1 renal, over 10 µM. Besides, the TGI in the test with K-562 leukemia, in the test with SN12C renal and in the test on A549 NSCLC was over 10 µM in each case.

In the case of `c1cncc(C(Nc2cccc3cccnc23)Nc2cccc3cccnc23)c1`, the TGI in the test on HT29 colon, in the test on DU-145 prostate, in the test on OVCAR-3 ovarian, in the test with CAKI-1 renal, in the test with K-562 leukemia and in the test on SN12C renal was over 100 µM in each case. The TGI in the test on A549 NSCLC and in the test with HL-60(TB) leukemia was over 100 µM in each case.

On to `Cc1cc(N/N=C/c2nc(-c3ccccc3)oc2C)c2cc(Cl)ccc2n1`, for which the GI50 in the test on A498 renal was 3.2 µM; in the test on HT29 colon, 1.82 µM; in the test with DU-145 prostate, 2.15 µM; in the test on OVCAR-4 ovarian, 1.85 µM; with OVCAR-3 ovarian, 1.94 µM; with CAKI-1 renal, 1.69 µM. Also, the GI50 in the test on SN12C renal is 1.78 µM; in the test with A549 NSCLC, 1.85 µM. Further, the TGI was determined as 18.1 µM in the test with A498 renal; 3.59 µM in the test on HT29 colon; 4.49 µM in the test with DU-145 prostate; 3.53 µM in the test on OVCAR-4 ovarian; 3.57 µM with OVCAR-3 ovarian; 3.1 µM with CAKI-1 renal. The TGI in the test with SN12C renal was determined as 3.49 µM; with A549 NSCLC it was 3.58 µM.

Consider `CCOC(=O)C(Cc1c[nH]c2cc([N+](=O)[O-])ccc12)(NC(C)=O)C(=O)OCC`, for which the GI50 in the test on A498 renal is 55.3 µM; in the test on HT29 colon, over 1000 µM; in the test with DU-145 prostate, over 542 µM; with OVCAR-4 ovarian, over 1000 µM; in the test with OVCAR-3 ovarian, over 1000 µM; in the test with CAKI-1 renal, 190 µM. The GI50 in the test with SN12C renal was 401 µM. For the same compound, the TGI is 203 µM in the test on A498 renal; over 1000 µM with HT29 colon; over 1000 µM in the test on DU-145 prostate; over 1000 µM with OVCAR-4 ovarian; over 1000 µM in the test on OVCAR-3 ovarian; over 1000 µM in the test on CAKI-1 renal. In addition, the TGI with SN12C renal and with A549 NSCLC was over 1000 µM throughout.

As for `CN(C)c1ccc(/C=C2\N=C(c3ccc(N)cc3)OC2=O)cc1`, the TGI in the test with A498 renal, in the test on HT29 colon, with OVCAR-4 ovarian, in the test on OVCAR-3 ovarian, in the test on CAKI-1 renal and in the test on K-562 leukemia was over 100 µM in each case. Besides, the TGI in the test with SN12C renal, in the test on A549 NSCLC and with HL-60(TB) leukemia was over 100 µM throughout.

Turning to `CCN(CC)C(=S)N/N=C(\C)c1ccccc1O`, the TGI in the test on A498 renal is over 100 µM; with HT29 colon, 48 µM; in the test with OVCAR-4 ovarian, over 100 µM; with OVCAR-3 ovarian, over 100 µM; with CAKI-1 renal, 55.3 µM; in the test with K-562 leukemia, over 100 µM. For the same compound, the TGI with SN12C renal was over 100 µM; in the test on A549 NSCLC, 43.4 µM; in the test on HL-60(TB) leukemia it was over 100 µM.

Regarding `N#CC(C#N)=CN1CCN(C(=O)c2ccccc2)C1=S`, the GI50 in the test with HT29 colon is 42 µM; in the test on DU-145 prostate, 24.4 µM; in the test with OVCAR-4 ovarian it was 59.3 µM; with OVCAR-3 ovarian it was 36.4 µM; in the test on CAKI-1 renal, 28.7 µM; in the test on K-562 leukemia, 79.5 µM. For the same compound, the GI50 was 24.6 µM in the test with SN12C renal, 37.1 µM in the test with A549 NSCLC and 33.5 µM in the test on HL-60(TB) leukemia. The TGI in the test on HT29 colon was over 100 µM; in the test on DU-145 prostate, 85.9 µM; in the test with OVCAR-4 ovarian, over 100 µM; in the test on OVCAR-3 ovarian, over 100 µM; in the test with CAKI-1 renal, 89.4 µM; in the test on K-562 leukemia, over 100 µM. Also, the figures for the TGI in the test on SN12C renal, in the test on A549 NSCLC and in the test with HL-60(TB) leukemia were 65.8 µM, over 100 µM and 79.4 µM, respectively.

As for `O=[N+]([O-])c1cc(Br)cc2c1[nH]c1ccc(Br)cc12`, the GI50 is 6.86 µM in the test on A498 renal; 4.03 µM in the test on HT29 colon; 6.17 µM in the test with DU-145 prostate; 2.48 µM in the test on OVCAR-4 ovarian; 2.56 µM with OVCAR-3 ovarian; 2.23 µM with CAKI-1 renal. The GI50 with SN12C renal was 53.8 µM; in the test with A549 NSCLC, 6.11 µM. The TGI in the test on A498 renal was 81.8 µM; in the test on HT29 colon, over 100 µM; in the test with DU-145 prostate it was 76.6 µM; in the test on OVCAR-4 ovarian it was 8.47 µM; in the test with OVCAR-3 ovarian, 7.42 µM; in the test on CAKI-1 renal it was 11.9 µM. In addition, the TGI in the test on SN12C renal is over 100 µM; in the test on A549 NSCLC it was 45 µM.

In the case of `O=C(O)c1ccc(NS(=O)(=O)c2cccc3cccnc23)cc1`, the GI50 in the test with A498 renal, in the test with HT29 colon, in the test with DU-145 prostate, with OVCAR-4 ovarian, with OVCAR-3 ovarian and in the test on CAKI-1 renal was over 100 µM throughout. Also, the GI50 in the test with K-562 leukemia, with SN12C renal and in the test on A549 NSCLC was over 100 µM each time. For the same compound, the TGI in the test on A498 renal, with HT29 colon, in the test on DU-145 prostate, in the test on OVCAR-4 ovarian, in the test with OVCAR-3 ovarian and in the test with CAKI-1 renal was over 100 µM in each case. Also, the TGI in the test on K-562 leukemia, in the test with SN12C renal and in the test on A549 NSCLC was over 100 µM each time.

The values above are taken from PubChem BioAssay (NCI).
